Test results: US6573271B2, “Method of preventing proliferation of retinal pigment epithelium by retinoic acid receptor agonists” (John Hopkins University School of Medicine, priority 1995, dated 2003)

Columns and labels:
RPE cells = test: RPE cell morphology after 10 days in retinoid; format: cell-based, human; details: 1 μm, 5% serum, on plastic
[1] = system: rabbit cell injection model of PVR; test: Rabbit cell injection model of PVR (RPE cells), intravitreous injection of retinoids; format: in vivo; details: for Any RD (%) / Total RD (%): 28 Days; for frequency and severity of traction retinal detachments versus vehicle: initial group, intravitreous injections of 100 μg; for frequency and severity of retinal detachments versus control: single intravitreous injection one day after RPE cell injection
Method: Briefly, pigmented rabbits were anesthetized with a subcutaneous injection of 5 mg/kg of xylazine and 25 mg/kg of ketamine, and the pupil of one eye was dilated with 2½% phenylephrine. Under direct observation 5×10^5 RPE cells were injected into the vitreous cavity just anterior to the optic nerve. […] .
Rabbits were examined by indirect ophthalmoscopy on days 7, 14 and 28 and traction retinal detachments were graded. […] . The localized clouds decreased in size and cleared over 2 to 3 weeks. There were no visible changes in the retina. […] .
It was felt that the hair loss and possibly the loss of appetite and death were due to systemic toxicity from drug that had gotten out of the eye. […] . None of the rabbits experienced hair loss and none died; their appetites appeared to be normal.

[2] = system: traction retinal detachment in rabbits; test: Traction retinal detachment in rabbits after human RPE cells, intravitreal injection of 168 and 299; format: in vivo, rabbit
[3] = system: traction retinal detachment in rabbits; test: Traction retinal detachment in rabbits after human RPE cells, subconjunctival injection; format: in vivo, rabbit; details: subconjunctival 0.3 mg once a day for five days
Excerpt: Due to the toxicity of certain RAR agonists and because the effects of retinoids are delayed in onset and reversible, methods for sustained release of the retinoids were investigated. […] The therapeutic effect of the RAR specific agonists was greater than that of RA, which is an agonist for both RXRs and RARs. There were no signs of any toxicity to the retina.

[4] = system: traction retinal detachment in rabbits; test: Traction retinal detachment in rabbits after human dermal fibroblasts, subconjunctival lipid microvesicles; format: in vivo, rabbit; details: human dermal fibroblasts
rabbit model of PVR [5] = details: 2 to 20 μg/ml SiO, 8 weeks; untreated controls 100%; cited from earlier work
rabbit model of PVR [6] = details: about 100 μg in biodegradable microspheres, vitreous cavity; cited from earlier work
human RPE cells = test: [3H]thymidine incorporation / proliferation of cultured human RPE cells; details: for inhibition at 0.05 µM / inhibition at 0.1 µM / inhibition at 1 µM: Homo sapiens, RPE, read-out: Percent Inhibition of [3H]thymidine incorporation in RPE cells
Excerpt: Primary cultures of human retinal pigment epithelium (RPE) cells were established from eyes obtained from the Old Dominion Eye Bank (Richmond, Va.) or the Eye Bank of Maryland (Baltimore, Md.) using the technique described in P. A. Campochiaro, et al., Invest.
For [3H]thymidine incorporation, RPE cells at passage 3 or 4 were lightly trypsinized and plated in 16-mm wells of 24-well plates. The transfected cells were allowed to attach overnight and then the media containing 5% fetal bovine serum (FBS) were supplemented with retinoids or vehicle alone. Stock solutions (10^−3M) of retinoids were prepared in dimethylsulfoxide (DMSO) and stored as frozen aliquots until used; the highest final concentration of DMSO was 0.1% and was also used for control cultures. The media containing freshly prepared retinoids were changed every three days. At 7 or 10 days 2 μCi/ml of [^3H]thymidine (specific activity, 6.7 Ci/mM; New England Nuclear, Boston, Mass.) was added to the cultures and incorporation was measured as previously described (Leschey, supra).
The potency of retinoid agonists for inhibition of serum stimulated DNA synthesis in human RPE cells was tested. […] The cells were shifted to serum-free media containing the same concentration of retinoid and then pulsed with 10% serum for 18 hours, after which [^3H]thymidine incorporation was measured. Thymidine incorporation for cells grown in control medium was used to calculate the percent inhibition of thymidine incorporation induced by four concentrations of each retinoid (each concentration tested in triplicate) which were then used to generate each line.

[7] = system: traction retinal detachment in rabbits; test: Traction retinal detachment in rabbits after human dermal fibroblasts, subconjunctival injection
[8] = system: traction retinal detachment in rabbits; test: Traction retinal detachment in rabbits after human dermal fibroblasts, intravitreous lipid microvesicles
Excerpt: In this experiment the retinoid was incorporated into lipid microvesicles utilizing standard techniques.

retinas of the rabbits = test: Ocular toxicity after single intravitreous injection, histopathology of retina; format: in vivo, rabbit; details: single intravitreous injection of 100 μg, two weeks after injection
Excerpt: The rabbits were killed two weeks after injection.

RARβ = target: T1, RARβ (Homo sapiens, UniProt P10826); test: Transactivation, ER/RAR-β hybrid receptor + ERE-CAT reporter cotransfected in HeLa cells
T1 sequence (P10826 183-417 limits assumed): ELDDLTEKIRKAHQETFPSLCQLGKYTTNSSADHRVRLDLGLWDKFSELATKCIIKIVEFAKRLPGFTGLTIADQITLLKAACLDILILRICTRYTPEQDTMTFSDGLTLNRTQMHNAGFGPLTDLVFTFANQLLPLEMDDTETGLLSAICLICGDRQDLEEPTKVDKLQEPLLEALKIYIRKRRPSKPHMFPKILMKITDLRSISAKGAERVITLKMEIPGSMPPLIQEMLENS

RARγ = target: T2, RARγ (Homo sapiens, UniProt P13631); test: Transactivation, ER/RAR-γ hybrid receptor + ERE-CAT reporter cotransfected in HeLa cells
T2 sequence (P13631 185-419 limits assumed): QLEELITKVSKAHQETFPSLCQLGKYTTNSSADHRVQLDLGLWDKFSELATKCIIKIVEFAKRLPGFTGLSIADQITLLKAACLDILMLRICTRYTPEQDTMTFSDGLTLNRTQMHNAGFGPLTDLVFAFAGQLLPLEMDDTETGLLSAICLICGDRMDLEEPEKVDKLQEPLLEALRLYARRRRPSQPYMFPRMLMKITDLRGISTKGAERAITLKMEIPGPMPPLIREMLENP

RXRα = target: T3, RXRα (Homo sapiens, UniProt P19793); test: Transactivation, ER/RXR-α hybrid receptor + ERE-CAT reporter cotransfected in HeLa cells
T3 sequence (P19793 227-458 limits assumed): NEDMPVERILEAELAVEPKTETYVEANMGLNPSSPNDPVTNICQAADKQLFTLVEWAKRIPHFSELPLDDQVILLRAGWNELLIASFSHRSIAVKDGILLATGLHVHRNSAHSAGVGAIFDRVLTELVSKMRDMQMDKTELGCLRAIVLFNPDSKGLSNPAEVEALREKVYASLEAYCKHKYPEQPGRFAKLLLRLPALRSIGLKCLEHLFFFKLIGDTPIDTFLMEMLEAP

[9] = 50 μg, single intravitreous injection
[10] = 100 μg intravitreous, two injections (day 1 and day 2 after cell injection)
[11] = 100 μg intravitreous, two injections
[12] = 100 μg, single intravitreous injection

CC1=C(/C=C/C(C)=C/C=C/C(C)=C/C(=O)O)C(C)(C)CCC1 [All trans RA, all-trans retinoic acid, reference compound]
RPE cell morphology / cell overgrowth (RPE cells): did not exhibit cell overgrowth
Partial RD at 14 Days (number of eyes) [1, 9]: 0
Partial RD at 28 Days (number of eyes) [1, 9]: 0
Total RD at 14 Days (number of eyes) [1, 9]: 4
Total RD at 28 Days (number of eyes) [1, 9]: 4
Any RD (%) [1, 9]: 66.7%
Total RD (%) [1, 9]: 66.7%
Partial RD at 14 Days (number of eyes) [1, 10]: 2
Partial RD at 28 Days (number of eyes) [1, 10]: 4
Total RD at 14 Days (number of eyes) [1, 10]: 0
Total RD at 28 Days (number of eyes) [1, 10]: 0
Any RD (%) [1, 11]: 44.4+ %
Total RD (%) [1, 11]: 0%
Partial RD at 14 Days (number of eyes) [1, 12]: 1
Partial RD at 28 Days (number of eyes) [1, 12]: 1
Total RD at 14 Days (number of eyes) [1, 12]: 0
Total RD at 28 Days (number of eyes) [1, 12]: 1
Any RD (%) [1, 12]: 28.6+ %
Total RD (%) [1, 12]: 14.3%
frequency and severity of traction retinal detachments versus vehicle [1]: fewer (p(0.05) and less severe traction retinal detachments
frequency and severity of retinal detachments versus control [1]: fewer (p(0.05) and less severe retinal detachments
% Any RD [2]: 100%
% Total RD [2]: 0%
RD at 7 Days, Partial [2]: 0
RD at 7 Days, Total [2]: 0
RD at 14 Days, Partial [2]: 0
RD at 14 Days, Total [2]: 0
RD at 28 Days, Partial [2]: 2
RD at 28 Days, Total [2]: 0
% Any RD [3]: 0%
% Total RD [3]: 0%
RD at 7 Days, Partial [3]: 0
RD at 7 Days, Total [3]: 0
RD at 14 Days, Partial [3]: 0
RD at 14 Days, Total [3]: 0
RD at 28 Days, Partial [3]: 0
RD at 28 Days, Total [3]: 0
% Any RD [4]: 63%
% Total RD [4]: 13%
RD at 7 Days, Partial [4]: 0
RD at 7 Days, Total [4]: 0
RD at 14 Days, Partial [4]: 0
RD at 14 Days, Total [4]: 1
RD at 28 Days, Partial [4]: 4
RD at 28 Days, Total [4]: 1
rate of retinal detachment (rabbit model of PVR [5]): 44.5%
tractional retinal detachment (TRD) (rabbit model of PVR [6]): significantly decreased tractional retinal detachment
inhibition at 0.05 µM (human RPE cells): 52.6%
inhibition at 0.1 µM (human RPE cells): 78.3%
inhibition at 1 µM (human RPE cells): 99.4%
inhibition of [3H]thymidine incorporation in RPE cells (human RPE cells; incubation for 7 days, FIG. 1): dose-dependent inhibition
% Any RD [7]: 50%
% Total RD [7]: 0%
RD at 7 Days, Partial [7]: 0
RD at 7 Days, Total [7]: 0
RD at 14 Days, Partial [7]: 0
RD at 14 Days, Total [7]: 0
RD at 28 Days, Partial [7]: 5
RD at 28 Days, Total [7]: 0
effect on retinal detachments [7]: decreased the number of retinal detachments and slowed the rate at which they developed
prevention of traction retinal detachment [8]: not effective
% Any RD ([8]; human dermal fibroblasts): 67%
% Total RD ([8]; human dermal fibroblasts): 67%
RD at 7 Days, Partial ([8]; human dermal fibroblasts): 1
RD at 7 Days, Total ([8]; human dermal fibroblasts): 0
RD at 14 Days, Partial ([8]; human dermal fibroblasts): 1
RD at 14 Days, Total ([8]; human dermal fibroblasts): 1
RD at 28 Days, Partial ([8]; human dermal fibroblasts): 0
RD at 28 Days, Total ([8]; human dermal fibroblasts): 4

C/C(=C\c1cc(C(=O)O)cs1)c1cc2c(cc1C)C(C)(C)CCC2(C)C [Compound 701, 2-[(E)-2-(5,6,7,8-tetrahydro-3,5,5,8,8-pentamethylnaphthaleen-2-yl)propen-1-yl]thiophene-4-carboxylic acid]
RPE cell morphology / cell overgrowth (RPE cells): failed to prevent cell overgrowth
Partial RD at 14 Days (number of eyes) [1, 10]: 3
Partial RD at 28 Days (number of eyes) [1, 10]: 2
Total RD at 14 Days (number of eyes) [1, 10]: 3
Total RD at 28 Days (number of eyes) [1, 10]: 5
Any RD (%) [1, 11]: 87.5%
Total RD (%) [1, 11]: 62.5%
Partial RD at 14 Days (number of eyes) [1, 12]: 2
Partial RD at 28 Days (number of eyes) [1, 12]: 1
Total RD at 14 Days (number of eyes) [1, 12]: 2
Total RD at 28 Days (number of eyes) [1, 12]: 3
Any RD (%) [1, 12]: 80%
Total RD (%) [1, 12]: 60%
frequency and severity of traction retinal detachments versus vehicle [1]: did not differ from controls
frequency and severity of retinal detachments versus control [1]: not statistically different from controls
inner retinal edema, histopathology (retinas of the rabbits): a few focal areas of inner retinal edema
retinal necrosis, histopathology (retinas of the rabbits): a few focal areas of retinal necrosis
inhibition at 0.05 µM (human RPE cells): 12%
inhibition at 0.1 µM (human RPE cells): 48.8%
inhibition at 1 µM (human RPE cells): 74.6%
inhibition of RPE [3H]thymidine incorporation (human RPE cells; incubation for 7 or 10 days): much less effective inhibitor
EC50 (RARβ): 3 µM
EC50 (RARγ): 1000 nM
EC50 (RXRα): 100 nM
